Test results published in US11420970B1 (NOVARTIS AG, priority 2019, dated 2022).
Where two headings read alike, the source gives them in different places.

Key:
NSD2 [1-1365] = NSD2 [1-1365] (Homo sapiens (Human), UniProt O96028); test: LC-MS/MS-based NSD2 enzymatic assay (SAH production); assay type: biochemical; settings: read-out: NSD2 IC50
How it was run: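 Full-length NSD2 [1-1365] (8 nM final) with 1 μM SAM and 400 nM mouse-liver nucleosome in Tris pH 8.0 buffer; inhibitor preincubated 20 min with enzyme/SAM before nucleosome addition. Reaction 90 min at room temperature, TFA-quenched; SAH quantified by LC-MS/MS against d4-SAH internal standard and SAH standard curve.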

[1] = tested on: cellular H3K36me2 level in multiple myeloma cell line KMS11 (t(4;14)+); test: H3K36me2 cellular ELISA assay in KMS11-Par line; assay type: cell-based; settings: Homo sapiens, KMS-11, ELISA, read-out: H3K36me2 ELISA in KMS11-Par
How it was run: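 KMS11 cells were seeded a day ahead at 1,250 per well in Opti-MEM with B-27/N2, then treated with compound for 72 h. Histones were acid-extracted with 0.4M HCl, and H3K36me2 and total H3 were read by chemiluminescent ELISA. Viability was checked with CellTiter-Glo on a parallel plate in maintenance media.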

[2] = tested on: cellular H3K36me2 level in thyroid carcinoma cell line CGTH-W-1 (NSD2 E1099K); test: H3K36me2 cellular ELISA assay in CGTH-W-1 line; assay type: cell-based; settings: Homo sapiens, CGTH-W-1, 72 h, read-out: H3K36me2 ELISA in CGTH-W-1
How it was run: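 CGTH-W-1 thyroid carcinoma cells (NSD2 E1099K gain-of-function) exposed to compound for 72 hours. Histone-bound plates probed for H3K36me2 and total H3 by chemiluminescent ELISA. Viability checked on a parallel plate with CellTiter-Glo.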

[3] = NSD2 biochemical activity, class symbols
[4] = KMS11-Par line (t(4;14)+), 72 hours treatment

Sequence of NSD2 [1-1365] (O96028 whole entry): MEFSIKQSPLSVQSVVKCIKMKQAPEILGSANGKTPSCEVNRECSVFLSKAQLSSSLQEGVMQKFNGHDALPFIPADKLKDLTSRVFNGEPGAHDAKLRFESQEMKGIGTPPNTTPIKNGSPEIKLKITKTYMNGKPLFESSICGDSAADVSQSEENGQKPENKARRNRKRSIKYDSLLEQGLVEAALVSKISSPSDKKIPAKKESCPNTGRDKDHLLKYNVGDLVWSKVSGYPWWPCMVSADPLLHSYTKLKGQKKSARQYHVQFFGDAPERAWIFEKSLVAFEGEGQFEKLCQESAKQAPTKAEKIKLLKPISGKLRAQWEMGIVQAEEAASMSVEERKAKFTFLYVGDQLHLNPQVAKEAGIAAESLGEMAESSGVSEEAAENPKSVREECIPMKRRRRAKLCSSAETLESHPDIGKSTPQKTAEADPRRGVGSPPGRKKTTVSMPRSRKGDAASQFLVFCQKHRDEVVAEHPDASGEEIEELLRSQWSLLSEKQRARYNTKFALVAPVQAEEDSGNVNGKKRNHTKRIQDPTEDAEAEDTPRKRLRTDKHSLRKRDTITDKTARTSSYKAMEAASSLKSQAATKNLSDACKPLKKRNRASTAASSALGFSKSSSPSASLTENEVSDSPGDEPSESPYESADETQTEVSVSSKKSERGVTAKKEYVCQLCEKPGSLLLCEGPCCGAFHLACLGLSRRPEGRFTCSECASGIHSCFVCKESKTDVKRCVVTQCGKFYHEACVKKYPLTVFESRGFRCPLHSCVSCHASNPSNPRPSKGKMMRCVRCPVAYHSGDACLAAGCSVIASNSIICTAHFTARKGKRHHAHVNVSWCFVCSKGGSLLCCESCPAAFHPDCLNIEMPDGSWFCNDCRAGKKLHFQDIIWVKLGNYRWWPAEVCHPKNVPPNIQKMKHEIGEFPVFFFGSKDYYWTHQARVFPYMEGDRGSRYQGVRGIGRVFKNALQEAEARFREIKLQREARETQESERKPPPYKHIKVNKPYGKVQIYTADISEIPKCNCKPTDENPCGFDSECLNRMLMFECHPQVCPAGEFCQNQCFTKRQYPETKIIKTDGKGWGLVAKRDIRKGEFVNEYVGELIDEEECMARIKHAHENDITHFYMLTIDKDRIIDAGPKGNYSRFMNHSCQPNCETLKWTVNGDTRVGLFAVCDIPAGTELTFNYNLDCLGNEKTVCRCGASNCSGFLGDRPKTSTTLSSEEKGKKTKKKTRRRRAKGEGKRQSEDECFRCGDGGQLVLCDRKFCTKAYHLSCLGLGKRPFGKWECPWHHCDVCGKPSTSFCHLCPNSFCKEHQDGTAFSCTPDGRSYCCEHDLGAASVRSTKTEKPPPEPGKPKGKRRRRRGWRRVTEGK

Row | Structure (SMILES) | IC50 (NSD2 [1-1365]; [3]) [nM] | IC50 [1, 4] [nM] | IC50 [2] [nM] | IC50 (NSD2 [1-1365]) [nM] | IC50 ([1]; KMS11-Par line, 72 hours) [nM]
1 | COc1ccc(-c2cc(Cn3cnc4c(N)ncnc43)c(N3CCC[C@](N)([C@H](O)C(F)F)C3)cn2)cc1F [Example 127, (S)-1-((R)-3-amino-1-(4-((6-amino-9H-purin-9-yl)methyl)-6-(3-fluoro-4-methoxyphenyl)pyridin-3-yl)piperidin-3-yl)-2,2-difluoroethan-1-ol] | 1 to 10 | 901 | 262 |  | 
2 | Nc1ncnc2c1ncn2Cc1cc(-c2cc(F)c(C(F)F)cc2F)ncc1N1CCC[C@](N)([C@@H](O)C(F)F)C1 [Example 134, (R)-1-((R)-3-amino-1-(4-((6-amino-9H-purin-9-yl)methyl)-6-(4-(difluoromethyl)-2,5-difluorophenyl)pyridin-3-yl)piperidin-3-yl)-2,2-difluoroethan-1-ol] | 10 to 1000 | 830 | 601 |  | 
3 | Nc1ncnc2c1ncn2Cc1cc(-c2ccc(F)c(Cl)c2)ncc1N1CCC[C@](N)([C@@H](O)C(F)F)C1 [Example 122, (R)-1-((R)-3-amino-1-(4-((6-amino-9H-purin-9-yl)methyl)-6-(3-chloro-4-fluorophenyl)pyridin-3-yl)piperidin-3-yl)-2,2-difluoroethan-1-ol] | 1 to 10 | 1830 | 496 |  | 
4 | COc1cc(F)c(-c2cc(Cn3cnc4c(N)ncnc43)c(N3CCC[C@](N)(c4cccc(Cl)n4)C3)cn2)cc1F [Example 187, (R)-9-((5-(3-amino-3-(6-chloropyridin-2-yl)piperidin-1-yl)-2-(2,5-difluoro-4-methoxyphenyl)pyridin-4-yl)methyl)-9H-purin-6-amine] |  |  | 383 | 10 to 1000 | 815
5 | Nc1ncnc2c1ncn2Cc1cc(-c2ccc(F)cc2F)ncc1N1CCC[C@](N)([C@H](O)C(F)F)C1 [Example 151, (S)-1-((R)-3-amino-1-(4-((6-amino-9H-purin-9-yl)methyl)-6-(2,4-difluorophenyl)pyridin-3-yl)piperidin-3-yl)-2,2-difluoroethan-1-ol] | 10 to 1000 | 4190 | 842 |  | 
6 | CC(O)c1ccc([C@@]2(N)CCCN(c3cnc(-c4ccc(F)c(F)c4)cc3Cn3cnc4c(N)ncnc43)C2)nc1Cl (stereo partly drawn) [Example 234, 1-(6-((R)-3-amino-1-(4-((6-amino-9H-purin-9-yl)methyl)-6-(3,4-difluorophenyl)pyridin-3-yl)piperidin-3-yl)-2-chloropyridin-3-yl)ethan-1-ol] |  |  | 1620 | 10 to 1000 | 5990
7 | COc1c(F)cc(-c2cc(Cn3cnc4c(N)ncnc43)c(N3CCC[C@](N)(c4cccc(Cl)n4)C3)cn2)cc1F [Example 233, (R)-9-((5-(3-amino-3-(6-chloropyridin-2-yl)piperidin-1-yl)-2-(3,5-difluoro-4-methoxyphenyl)pyridin-4-yl)methyl)-9H-purin-6-amine] |  |  | 341 | 1 to 10 | 1100
8 | Nc1ncnc2c1ncn2Cc1cc(-c2ccc(Cl)c(F)c2)ncc1N1CCC[C@](N)([C@H](O)C(F)F)C1 [Example 152, (S)-1-((R)-3-amino-1-(4-((6-amino-9H-purin-9-yl)methyl)-6-(4-chloro-3-fluorophenyl)pyridin-3-yl)piperidin-3-yl)-2,2-difluoroethan-1-ol] | 10 to 1000 | 1770 | 68.7 |  | 
9 | Nc1ncnc2c1ncn2Cc1cc(-c2ccc(OC(F)F)c(F)c2)ncc1N1CCC[C@](N)([C@H](O)C(F)F)C1 [Example 116, (S)-1-((R)-3-amino-1-(4-((6-amino-9H-purin-9-yl)methyl)-6-(4-(difluoromethoxy)-3-fluorophenyl)pyridin-3-yl)piperidin-3-yl)-2,2-difluoroethan-1-ol] | 1 to 10 | 1350 | 168 |  | 
10 | Nc1ncnc2c1ncn2Cc1cc(-c2cc(F)c(F)cc2C(F)F)ncc1N1CCC[C@](N)([C@@H]2COCCO2)C1 [Example 291, 9-((5-((R)-3-amino-3-((R)-1,4-dioxan-2-yl)piperidin-1-yl)-2-(2-(difluoromethyl)-4,5-difluorophenyl)pyridin-4-yl)methyl)-9H-purin-6-amine] |  |  | 812 | 10 to 1000 | 1690
11 | Nc1ncnc2c1ncn2Cc1cc(-c2cc(F)c(F)cc2F)ncc1N1CCC[C@](N)(c2cccc(Cl)n2)C1 [Example 237] |  |  | 825 | 10 to 1000 | 2020
12 | COc1ccc(-c2cc(Cn3cnc4c(N)ncnc43)c(N3CCC[C@](N)([C@@H](O)C(F)F)C3)cn2)cc1Cl [Example 121, (R)-1-((R)-3-amino-1-(4-((6-amino-9H-purin-9-yl)methyl)-6-(3-chloro-4-methoxyphenyl)pyridin-3-yl)piperidin-3-yl)-2,2-difluoroethan-1-ol] | 1 to 10 | 2610 | 683 |  | 
13 | COc1ncc(-c2cc(Cn3cnc4c(N)ncnc43)c(N3CCC[C@](N)(c4cccc(Cl)n4)C3)cn2)cc1F [Example 231, (R)-9-((5-(3-amino-3-(6-chloropyridin-2-yl)piperidin-1-yl)-5′-fluoro-6′-methoxy-[2,3′-bipyridin]-4-yl)methyl)-9H-purin-6-amine] |  |  | 2150 | 10 to 1000 | 7440
14 | Nc1ncnc2c1ncn2Cc1cc(-c2ccc(F)c(F)c2)ncc1N1CC[C@@H](O)[C@@H](N)C1 [Example 3, (3S,4R)-3-amino-1-(4-((6-amino-9H-purin-9-yl)methyl)-6-(3,4-difluorophenyl)pyridin-3-yl)piperidin-4-ol] | 10 to 1000 | 33300 | 8250 |  | 
15 | Cc1cc(F)c(F)cc1-c1cc(Cn2cnc3c(N)ncnc32)c(N2CCC[C@](N)([C@@H](O)C(F)F)C2)cn1 [Example 117, (R)-1-((R)-3-amino-1-(4-((6-amino-9H-purin-9-yl)methyl)-6-(4,5-difluoro-2-methylphenyl)pyridin-3-yl)piperidin-3-yl)-2,2-difluoroethan-1-ol] | 1 to 10 | 1320 | 67 |  | 
16 | Cn1ccc(C(=O)C2(N)CCCN(c3cnc(-c4ccc(F)c(F)c4)cc3Cn3cnc4c(N)ncnc43)C2)n1 (stereo not drawn) [Example 110, (3-amino-1-(4-((6-amino-9H-purin-9-yl)methyl)-6-(3,4-difluorophenyl)pyridin-3-yl)piperidin-3-yl)(1-methyl-1H-pyrazol-3-yl)methanone] | 10 to 1000 | 6340 | 1360 |  | 
17 | COc1ccc(-c2cc(Cn3cnc4c(N)ncnc43)c(N3CCC[C@](N)(c4cccc(Cl)n4)C3)cn2)nc1Cl [Example 194, (R)-9-((5-(3-amino-3-(6-chloropyridin-2-yl)piperidin-1-yl)-6′-chloro-5′-methoxy-[2,2′-bipyridin]-4-yl)methyl)-9H-purin-6-amine] |  |  | 805 | 10 to 1000 | 3280
18 | C#C[C@@]1(N)CCCN(c2cnc(-c3ccc(F)c(F)c3)cc2Cn2cnc3c(N)ncnc32)C1 [Example 304, (S)-9-((5-(3-amino-3-ethynylpiperidin-1-yl)-2-(3,4-difluorophenyl)pyridin-4-yl)methyl)-9H-purin-6-amine] |  |  | 101 | 10 to 1000 | 592
19 | Nc1ncnc2c1ncn2Cc1cc(-c2cc(F)cc(C(F)F)c2F)ncc1N1CCC[C@](N)([C@@H](O)C(F)F)C1 [Example 154, (R)-1-((R)-3-amino-1-(4-((6-amino-9H-purin-9-yl)methyl)-6-(3-(difluoromethyl)-2,5-difluorophenyl)pyridin-3-yl)piperidin-3-yl)-2,2-difluoroethan-1-ol] | 10 to 1000 | 9110 | 2930 |  | 
20 | COc1c(F)cc(-c2cc(Cn3cnc4c(N)ncnc43)c(N3CCC[C@](N)(C(O)C(F)F)C3)cn2)cc1F (stereo in doubt) [Example 165, (S)-1-((R)-3-amino-1-(4-((6-amino-9H-purin-9-yl)methyl)-6-(3,5-difluoro-4-methoxyphenyl)pyridin-3-yl)piperidin-3-yl)-2,2-difluoroethan-1-ol] | 1 to 10 | 1080 | 218 |  | 
21 | COc1ccc(-c2cc(Cn3cnc4c(N)ncnc43)c(N3CCC[C@](N)([C@@H](O)C(F)F)C3)cn2)c(C(F)F)c1 [Example 162, (R)-1-((R)-3-amino-1-(4-((6-amino-9H-purin-9-yl)methyl)-6-(2-(difluoromethyl)-4-methoxyphenyl)pyridin-3-yl)piperidin-3-yl)-2,2-difluoroethan-1-ol] | 1 to 10 | 440 | 86 |  | 
22 | COc1ccc(-c2cc(Cn3cnc4c(N)ncnc43)c(N3CCC[C@](N)(c4cccc(Cl)n4)C3)cn2)cc1F [Example 213, (R)-9-((5-(3-amino-3-(6-chloropyridin-2-yl)piperidin-1-yl)-2-(3-fluoro-4-methoxyphenyl)pyridin-4-yl)methyl)-9H-purin-6-amine] |  |  | 258 | 1 to 10 | 387
